According to patent US4533541A, “Tin-117m-labeled stannic (Sn^4+) chelates” (The United States of America as represented by the United …, priority 1983, dated 1985):
Like-named read-outs stand apart in the source and are kept apart here.

Details: mouse, in vivo; for Blood, % Dose per Gram / Bone, % Dose per Gram / Kidneys, % Dose per Gram / Liver, % Dose per Gram / % Dose remaining in whole body: iv
Experimental: Tissue distribution studies were done in normal BNL mice. All animals were injected with the appropriate radiopharmaceutical intravenously. A number of time periods up to 7 days after injection were used to collect the data.
Comparative studies were conducted using Sn^2+ chloride (pH 2 and 7), Sn^4+ chloride (pH 2), and Sn(2+ and 4+)-labeled chelates (MDP, DTPA, EHDP, and PYP).
Tissue distribution in mice of Sn(2+ and 4+) chloride (pH 2 and 7), and of the stannous and stannic chelates of MDP, DTPA, PYP, and EHDP is shown in Table 1.

Ratio, bone to Blood (30 min): 29
Ratio, bone to Kidney (30 min): 8.1
Ratio, bone to Liver (30 min): 8.4
Ratio, bone to Muscle (30 min): 93
Ratio, bone to Blood (180 min): 85
Ratio, bone to Kidney (180 min): 11
Ratio, bone to Liver (180 min): 13
Ratio, bone to Muscle (180 min): 270
Ratio, bone to Blood (1440 min): 205
Ratio, bone to Kidney (1440 min): 18
Ratio, bone to Liver (1440 min): 14
Ratio, bone to Muscle (1440 min): 375
Blood, % Dose per Gram (0.5 h): 0.41 % Dose per Gram
Bone, % Dose per Gram (0.5 h): 11.80 % Dose per Gram
Kidneys, % Dose per Gram (0.5 h): 1.46 % Dose per Gram
Liver, % Dose per Gram (0.5 h): 1.41 % Dose per Gram
% Dose remaining in whole body (30 min): 33.5 % Dose
% Dose remaining in whole body (180 min): 30.2 % Dose
Blood, % Dose per Gram (3 h): 0.14 % Dose per Gram
Bone, % Dose per Gram (3 h): 12.30 % Dose per Gram
Kidneys, % Dose per Gram (3 h): 1.11 % Dose per Gram
Liver, % Dose per Gram (3 h): 0.97 % Dose per Gram
% Dose remaining in whole body (1440 min): 22.5 % Dose
Blood, % Dose per Gram (24 h): 0.05 % Dose per Gram
Bone, % Dose per Gram (24 h): 10.30 % Dose per Gram
Kidneys, % Dose per Gram (24 h): 0.57 % Dose per Gram
Liver, % Dose per Gram (24 h): 0.73 % Dose per Gram
SMILES: O.O.O=P([O-])([O-])CP(=O)([O-])[O-].[99Tc+4] [^99m Tc-MDP]
